Measurements: ChEMBL document CHEMBL2407087, “Casuarinines A-J, lycodine-type alkaloids from Lycopodiastrum casuarinoides” (J Nat Prod, 2013)
Calls of active or inactive are those of the source. No cut-off for these calls is given here.

Experiments:
[1] = molecular target: T1, Acetylcholinesterase (Rattus norvegicus) (UniProt P37136); assay: Mixed-type competitive inhibition of rat cortical AChE by Lineweaver-Burke plot analysis
T1 sequence (whole entry): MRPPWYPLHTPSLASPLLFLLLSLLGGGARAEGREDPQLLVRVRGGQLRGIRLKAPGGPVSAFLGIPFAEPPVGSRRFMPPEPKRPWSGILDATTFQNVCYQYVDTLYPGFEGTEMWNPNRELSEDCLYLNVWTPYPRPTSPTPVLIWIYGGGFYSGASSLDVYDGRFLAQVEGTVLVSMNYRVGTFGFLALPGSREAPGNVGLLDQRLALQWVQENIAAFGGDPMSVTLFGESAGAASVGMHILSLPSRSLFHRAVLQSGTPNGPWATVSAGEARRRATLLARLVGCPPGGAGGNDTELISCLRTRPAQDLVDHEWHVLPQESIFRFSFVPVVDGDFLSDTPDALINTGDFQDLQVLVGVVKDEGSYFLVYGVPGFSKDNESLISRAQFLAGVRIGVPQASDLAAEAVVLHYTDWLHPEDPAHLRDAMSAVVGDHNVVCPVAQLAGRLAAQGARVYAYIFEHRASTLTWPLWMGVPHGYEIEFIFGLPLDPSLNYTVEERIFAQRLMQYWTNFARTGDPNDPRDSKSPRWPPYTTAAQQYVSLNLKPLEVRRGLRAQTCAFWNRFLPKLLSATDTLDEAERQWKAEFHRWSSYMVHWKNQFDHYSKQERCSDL

[2] = molecular target: T1, Acetylcholinesterase (Rattus norvegicus); assay: Reversible inhibition of rat cortical AChE up to 8 mins
[3] = Neuroprotective activity in human SH-SY5Y cells assessed as protection against H2O2-induced reduction of cell viability at 100 uM treated 2 hrs before H2O2 addition measured after 24 hrs by MTT assay relative to H2O2 treated control; format: functional, cell-based
[4] = Neuroprotective activity in human SH-SY5Y cells assessed as protection against H2O2-induced reduction of cell viability at 100 uM treated 2 hrs before H2O2 addition measured after 24 hrs by MTT assay relative to control; format: functional, cell-based
[5] = molecular target: Acetylcholinesterase (Homo sapiens, UniProt P22303); assay: Inhibition of AChE (unknown origin) using acetylthiocholine iodide as substrate after 8 mins by Ellman's spectrophotometric method
Sequence of Acetylcholinesterase (Homo sapiens, UniProt P22303) (P22303 whole entry): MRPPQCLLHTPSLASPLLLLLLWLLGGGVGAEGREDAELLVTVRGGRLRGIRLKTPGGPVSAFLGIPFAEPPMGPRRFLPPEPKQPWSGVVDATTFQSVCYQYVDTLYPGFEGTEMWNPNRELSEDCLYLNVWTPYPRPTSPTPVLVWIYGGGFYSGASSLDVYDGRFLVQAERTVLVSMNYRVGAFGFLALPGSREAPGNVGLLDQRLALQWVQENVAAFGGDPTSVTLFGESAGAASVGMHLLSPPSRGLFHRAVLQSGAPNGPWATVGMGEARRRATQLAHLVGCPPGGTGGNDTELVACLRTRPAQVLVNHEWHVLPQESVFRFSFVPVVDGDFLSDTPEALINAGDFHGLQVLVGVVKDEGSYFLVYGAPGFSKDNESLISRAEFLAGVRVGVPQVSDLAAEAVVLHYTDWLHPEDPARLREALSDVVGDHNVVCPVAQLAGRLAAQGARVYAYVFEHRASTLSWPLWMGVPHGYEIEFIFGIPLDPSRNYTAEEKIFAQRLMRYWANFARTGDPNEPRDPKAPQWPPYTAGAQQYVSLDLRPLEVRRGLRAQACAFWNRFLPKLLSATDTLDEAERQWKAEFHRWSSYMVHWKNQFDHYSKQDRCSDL

[6] = molecular target: T2, Acetylcholinesterase (Mus musculus, UniProt P21836); assay: Inhibition of mouse skeletal AChE
T2 sequence (P21836 whole entry): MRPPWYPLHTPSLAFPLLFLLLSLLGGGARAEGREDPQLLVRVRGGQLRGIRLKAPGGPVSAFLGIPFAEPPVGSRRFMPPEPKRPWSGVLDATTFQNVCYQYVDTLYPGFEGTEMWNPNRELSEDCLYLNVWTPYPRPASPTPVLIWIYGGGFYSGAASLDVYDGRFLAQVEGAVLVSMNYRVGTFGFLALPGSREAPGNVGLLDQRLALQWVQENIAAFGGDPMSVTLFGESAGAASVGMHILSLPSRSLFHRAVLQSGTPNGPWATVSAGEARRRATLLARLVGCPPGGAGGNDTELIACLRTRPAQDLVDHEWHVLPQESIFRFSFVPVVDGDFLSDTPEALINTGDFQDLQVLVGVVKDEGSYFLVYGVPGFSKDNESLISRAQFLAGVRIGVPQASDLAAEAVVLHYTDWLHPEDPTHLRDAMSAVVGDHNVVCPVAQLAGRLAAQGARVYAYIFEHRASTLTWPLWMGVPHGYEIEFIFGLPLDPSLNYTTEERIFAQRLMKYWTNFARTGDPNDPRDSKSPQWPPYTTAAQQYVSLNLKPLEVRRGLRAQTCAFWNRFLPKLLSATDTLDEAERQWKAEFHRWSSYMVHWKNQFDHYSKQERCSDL

[7] = Neuroprotective activity in human SH-SY5Y cells assessed as protection against H2O2-induced reduction of cell viability at 1 uM treated 2 hrs before H2O2 addition measured after 24 hrs by MTT assay relative to control; format: functional, cell-based
[8] = Neuroprotective activity in human SH-SY5Y cells assessed as protection against H2O2-induced reduction of cell viability at 10 uM treated 2 hrs before H2O2 addition measured after 24 hrs by MTT assay relative to control; format: functional, cell-based
[9] = Neuroprotective activity in human SH-SY5Y cells assessed as protection against H2O2-induced reduction of cell viability at 10 uM treated 2 hrs before H2O2 addition measured after 24 hrs by MTT assay relative to H2O2 treated control; format: functional, cell-based

Row | Structure (SMILES) | inhibition [1] | inhibition [2] | IC50 [5] | other results
1 | C=C[C@@H]1[C@H]2C=C(C)C[C@]1(N)c1ccc(=O)[nH]c1C2 | Active | Active |  | 
2 | CC(=O)N[C@@H](CS)C(=O)O |  |  |  | Activity [3]: 12.3%; Activity [4]: 55.8%
3 | CC1=C[C@H]2Cc3[nH]c(=O)ccc3[C@@]3(C1)[C@@H]2[C@H](C)CN3C |  | Active | 12.1 µM | 
4 | C=C[C@@H]1[C@H]2C=C(C)C[C@]1(NC)c1ccc(=O)[nH]c1C2 | Active | Active | 15 µM | IC50 [6]: 2 µM
5 | CC1=C[C@H]2Cc3[nH]c(=O)ccc3[C@@]3(C1)[C@@H]2[C@H](Cl)CCN3C | Active | Active | 20.9 µM | 
6 | C=C[C@@H]1[C@@H]2Cc3[nH]c(=O)ccc3[C@@]1(N)C[C@H](C)C2 |  |  |  | Activity [7]: 49.1%; Activity [8]: 55.5%; Activity [9]: 12%
